In this experiment the target is T1, Angiotensin II-Rezeptor (Rattus norvegicus, UniProt P25095).
T1 construct: Das Gewebe (Rattenlunge) wird in Tris-Puffer; from tissue; host or cells: rat lung homogenate (membrane pellet, 20,000 x g)
T1 sequence (P25095 1-359): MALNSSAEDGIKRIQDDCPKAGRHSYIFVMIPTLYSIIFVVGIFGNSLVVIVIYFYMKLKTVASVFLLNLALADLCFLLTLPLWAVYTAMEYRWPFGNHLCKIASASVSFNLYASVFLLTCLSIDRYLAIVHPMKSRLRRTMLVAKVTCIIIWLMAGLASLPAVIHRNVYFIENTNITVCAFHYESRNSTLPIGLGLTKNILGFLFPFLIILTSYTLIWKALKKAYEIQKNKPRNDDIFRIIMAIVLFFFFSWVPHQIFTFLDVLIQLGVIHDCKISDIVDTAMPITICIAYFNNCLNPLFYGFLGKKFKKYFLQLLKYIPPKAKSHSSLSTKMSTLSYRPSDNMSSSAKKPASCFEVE
As to the kind of experiment: Angiotensin II receptor binding ([125I]-angiotensin II displacement, rat lung homogenate). More on the design: species or system Ratte. The conditions noted are these: Rattenlunge homogenate, 50 pM [¹²⁵I]-Angiotensin II, 60 Min. bei 37°C; read-out: IC₅₀. As for the experimental part:
Methodenbeschreibung Angiotensin II-Rezeptorbindung
Das Gewebe (Rattenlunge) wird in Tris-Puffer (50 mMol Tris, 150 mMol NaCl, 5 mMol EDTA, pH 7.40) homogenisiert und zweimal je 20 Min. bei 20.000 x g zentrifugiert. Das endgültige Pellet wird in Inkubations-Puffer (50 mMol Tris, 5 mMol MgCl₂, 0,2 % BSA, pH 7,40) 1:75, bezogen auf das Feuchtgewicht des Gewebes, resuspendiert. Je 0,1 ml Homogenat wird für 60 Min. bei 37°C mit 50 pM [¹²⁵I]-Angiotensin II (NEN, Dreieich, FRG) und steigenden Konzentrationen der Testsubstanz in einem Gesamtvolumen von 0,25 ml inkubiert. Die Inkubation wird durch rasche Filtration durch Glasfiber-Filtermatten beendet. Die Filter werden je 4 ml eiskaltem Puffer (25 mMol Tris, 2.5 mMol MgCl₂, 0,1 % BSA, pH 7,40) gewaschen. Die gebundene Radioaktivität wird in einem Gamma-Counter ermittelt. Aus der Dosis-Wirkungskurve wird der entsprechende IC₅₀-Wert ermittelt.

In the case of `CCCc1nc2c(C)cc(-c3nc(C(C)C)c(C)n3C)cc2n1Cc1ccc(-c2ccccc2C(=O)O)cc1` [Substanz K, 4'-[[2-n-Propyl-4-methyl-6-(4-isopropyl-1,5-dimethyl-imidazol-2-yl)-1H-benzimidazol-1-yl]-methyl]-biphenyl-2-carbonsäure x 1,25 Wasser], the IC50 was found to be 19.5 nM. In the case of `CCc1nc2c(C)cc(-c3nc4c(n3-c3ccccc3)CCCC4)cc2n1Cc1ccc(-c2ccccc2C(=O)O)cc1` [Substanz E, 4'-[[2-Ethyl-4-methyl-6-(1-phenyl-5,6,7,8-tetrahydrobenzimidazol-2-yl)-1H-benzimidazol-1-yl]-methyl]-biphenyl-2-carbonsäure-hydrat] it was 46 nM.

On to `CCCc1nc2c(C)cc(-c3nc4c(n3Cc3ccccc3)CCCC4)cc2n1Cc1ccc(-c2ccccc2C(=O)O)cc1` [Substanz D, 4'-[[2-n-Propyl-4-methyl-6-(1-benzyl-5,6,7,8-tetrahydrobenzimidazol-2-yl)-1H-benzimidazol-1-yl]-methyl]-biphenyl-2-carbonsäure], for which the IC50 was determined as 6 nM. In the case of `CCCc1nc2c(C)cc(-c3nc(-c4ccccc4)c(C)n3C)cc2n1Cc1ccc(-c2ccccc2C(=O)O)cc1` [Substanz I, 4'-[[2-n-Propyl-4-methyl-6-(1,5-dimethyl-4-phenyl-imidazol-2-yl)-1H-benzimidazol-1-yl]-methyl]-biphenyl-2-carbonsäure-hydrat] it was 3.2 nM. Turning to `CCCc1nc2c(C)cc(-c3nc4c(n3C)CCCC4)cc2n1Cc1ccc(-c2ccccc2-c2nnn[nH]2)cc1` [Substanz C, 4'-[[2-n-Propyl-4-methyl-6-(1-methyl-5,6,7,8-tetrahydrobenzimidazol-2-yl)-1H-benzimidazol-1-yl]-methyl]-2-(1H-tetrazol-5-yl)biphenyl], the IC50 amounted to 2.6 nM. The result for `CCCc1nc2c(C)cc(-c3nc4c(n3CC(=O)O)CCCC4)cc2n1Cc1ccc(-c2ccccc2C(=O)O)cc1` [Substanz F, 4'-[[2-n-Propyl-4-methyl-6-(1-carboxymethyl-5,6,7,8-tetrahydrobenzimidazol-2-yl)-1H-benzimidazol-1-yl]-methyl]-biphenyl-2-carbonsäure-semihydrat] reads 38 nM.

`CCc1nc2c(C)cc(-c3nc4c(n3CC)CCCC4)cc2n1Cc1ccc(-c2ccccc2-c2nnn[nH]2)cc1` [Substanz G, 4'-[[2-Ethyl-4-methyl-6-(1-ethyl-5,6,7,8-tetrahydro-benzimidazol-2-yl)-1H-benzimidazol-1-yl]-methyl]-2-(1H-tetrazol-5-yl)-biphenyl-hydrat]: the IC50 is 1.6 nM. In the case of `CCCc1nc2c(C)cc(-c3nc4c(n3C)CCCC4)cc2n1Cc1ccc(-c2ccccc2C(=O)O)cc1` [Substanz B, 4'-[[2-n-Propyl-4-methyl-6-(1-methyl-5,6,7,8-tetrahydrobenzimidazol-2-yl)-1H-benzimidazol-1-yl]-methyl]-biphenyl-2-carbonsäure] it was 3.8 nM.

Turning to `CCCc1nc2c(C)cc(C3=NC(C)(C)CO3)cc2n1Cc1ccc(-c2ccccc2C(=O)O)cc1` [Substanz H, 4'-[[2-n-Propyl-4-methyl-6-(4,4-dimethyl-oxazolin-2-yl)-1H-benzimidazol-1-yl]-methyl]-biphenyl-2-carbonsäure-di-trifluoracetat], the IC50 was found to be 37 nM. In the case of `CCCc1nc2c(C)cc(-c3nc4c([nH]3)CCCC4)cc2n1Cc1ccc(-c2ccccc2C(=O)O)cc1` [Substanz A, 4'-[[2-n-Propyl-4-methyl-6-(5,6,7,8-tetrahydrobenzimidazol-2-yl)-1H-benzimidazol-1-yl]-methyl]-biphenyl-2-carbonsäure] it was 12 nM.
